Results reported in patent US12246022B2, “Compositions and methods for treating, preventing or reversing age associated inflammation and disorders” (BROWN UNIVERSITY, priority 2019, dated 2025).
Read-outs that look alike come from different tables or passages of the source.

Key:
IFN-I response = IFN-I response in senescent and 3X human fibroblasts (RT-qPCR, ELISA, immunoblotting); assay type: cell-based; settings: LF1 and IMR90, 5 μM
Description: (§1) To obtain replicatively senescent (RS) cells, LF1 cultures were serially propagated until proliferation ceased. At each passage, after reaching 80% confluence cells were trypsinized and diluted 1:4. […] In early passage cultures, the time between passages is constant at approximately 3 days. […] At this point, after reaching 80% confluence, the cells were replated at 1:2 dilution, and this time was designated as the last passage (point A in FIG. 2A). […] Under this experimental regimen, the majority of the cells in the culture enter senescence within a 3-4 weeks window centered roughly around the time of last passage (grey bar in FIG. 2A). At point B (4 weeks), the cultures were trypsinized and replated as described^60 to eliminate a small fraction of persisting contact-inhibited cells. Cultures were again replated at point C (8 weeks).
Oncogene-induced senescence (OIS) was elicited by infecting proliferating LF1 cells with pLenti CMV RasV12 Neo (Addgene plasmid #22259). Generation of lentiviral particles and the infection procedure are described below. At the end of the infection, cells were reseeded at 15-20% confluency and selected with G418 (250 μg/ml) maintained continuously until the end of the experiment Medium was changed every 3 days until the cultures were harvested at the indicated time points. Stress-induced premature senescence (SIPS) was elicited by […] irradiation with 20 Gy given at a rate of 87 cGy/min in one fraction using a cesium-137 gamma source (Nordion Gammacell 40). Cells were 15-20% confluent at the time of irradiation. Medium was changed immediately after irradiation, and at 3-day intervals thereafter. […]
The ABI ViiA 7 instrument (Applied Biosystems) was used for all experiments. qPCR of DNA was performed using the TaqMan system (Applied Biosystems) as described by Coufal et al. (2009).^64 […] of purified genomic DNA was used with the indicated primers (see Table 1). […] Effectiveness of the DNase digestion was assessed using controls that omitted the RT enzyme. […]

SASP response = assay: Senescence entry and SASP gene expression in human fibroblasts (RT-qPCR); assay type: cell-based; settings: LF1, 5 μM
Description: as §1
(§2) The ABI ViiA 7 instrument (Applied Biosystems) was used for all experiments. qPCR of DNA was performed using the TaqMan system (Applied Biosystems) as described by Coufal et al. (2009).^64 […] of purified genomic DNA was used with the indicated primers (see Table 1). Reverse transcription qPCR (RT-qPCR) of RNA was performed using the SYBR Green system (Applied Biosystems). […] Effectiveness of the DNase digestion was assessed using controls that omitted the RT enzyme.

L1HS sequences = assay: L1 sequence abundance (copy number) by TaqMan qPCR in senescent fibroblasts; assay type: cell-based, human; settings: LF1, IMR90, W138 fibroblasts, 5 μM in medium, 4 months in senescence
Protocol: as §2, with “Biosystems). Polyadenylated RNA was used in all experiments assessing transcription of L1 elements, and total RNA was used for all other genes. Total RNA was harvested using the Trizol reagent (Invitrogen). Poly(A) RNA was isolated from total RNA using the NEBNext Poly(A) mRNA Magnetic Isolation Module (New England Biolabs).” for “Biosystems).”
Primer sets 1 to 5 (Table 1, amplicons A to E in FIG. 1B) to human L1 were designed to preferentially amplify elements of the human-specific L1 HS and evolutionarily recent primate-specific L1 PA(2-6) subfamilies, as follows. […] Sequences of primers corresponding to a consensus of all the murine IFN alpha family genes, as well as to the IFNB1 gene, were obtained from the publication by Gautier et al.^71 For quantifying relative L1 genomic copy number (human cells), the TaqMan multiplex method developed by Coufal et al. (2009)^72 was used. […]

human LINE-1 [1] = assay: Human LINE-1 retrotransposition assay, related experiments with islatravir (pYX017, HeLa cells, Tables 12 and 13); assay type: cell-based; settings: for IC50: Homo sapiens
Protocol: In related experiments, islatravir and other compounds were tested for inhibition of retrotransposition activity of human LINE-1 in HeLa cells according to the following procedure.
HeLa cervical cancer cells were cultivated at 37° C. in a humidified 5% CO2 incubator in Dulbecco's Modified Eagle's Medium (DMEM)—high glucose, with 4500 mg/L glucose, L-glutamine, sodium pyruvate and sodium bicarbonate (Sigma), supplemented with 10% of heat inactivated fetal bovine serum (Thermo Fisher).
Assays were performed using reporter plasmid pYX017 as described (Xie, et al., 2011) with several modifications. The reporter assay was performed in 96-well white optical bottom plates. HeLa cells were seeded in wells 24 h prior to transfection and compound treatment so that cells were approximately 30% confluent on the day of transfection. Different cell plating densities were tested and a density of 2×10^3 cells was determined to be optimal.
Compounds were resuspended in DMSO. Serial dilutions (1:3) were prepared in DMSO. Medium containing different concentrations of the compounds were prepared by adding 2 μl of the compound dilution to 1 ml of the culture medium. The final concentration of DMSO in the medium was 0.2%.
FuGENE® HD transfection reagent (Promega, E2311, Lot 382574 and Lot 397842) was used to transfect the plasmids into the cells. The transfection reagent: DNA mixture was prepared in OpiMEM (Thermo Fisher) according to manufacturer's instructions. Different ratios of transfection reagent to DNA were tested and a ratio of 3:1 was determined to be optimal. Culture medium was removed from the cells and discarded. The transfection reagent: DNA mixture (5 μl) was mixed with the compound containing medium (100 μl/well) and this was added onto the cells of each well. Cells were incubated at 37° C./5% CO2 for different incubation time. A 72 h incubation time was determined to be optimal.
Luciferase reporter activity was quantified with the Dual-Luciferase® Reporter Assay System (Promega) according to manufacturer's instructions for multiwell plates except that cells were lysed directly on the multiwell plate with 30 μl of the passive lysis buffer (PLB) for 20 min at room temperature, with gentle shaking to ensure complete cell lysis.
Firefly and Renilla luciferase signals were measured using a SpectraMax i3x Multi-Mode Microplate Reader. Integration times of 100 ms and 10 ms were used to measure the Firefly and Renilla signals respectively. Relative L1 activity is calculated as Firefly/Renilla *1000 or Firefly/Renilla *10,000. Dose response inhibition data were fit to a four parameter logistic equation using non-linear regression (using Graphpad Prism 8), to determine IC50 values for each inhibitor.

human LINE-1 [2] = assay: Islatravir Inhibitory Quotient (IQ) estimate for human LINE-1 in PBMC and brain; settings: for Human LINE-1 IQ C168 hr, PBMC, single dose / Human LINE-1 IQ Cavg (ss), PBMC, q.d.: EFdA-TP EC50 = 316 nM; for Human LINE-1 IQ C168 hr, Brain, single dose / Human LINE-1 IQ Cavg (ss), Brain, q.d.: assume Br./plasma = 0.25
HIV WT = settings: Grobler et al. 2019; read-out: HIV WT IC50; cited from earlier work
[3] = cited from earlier work
[4] = human plasma PK, oral dose 0.5-30 mg; cited from earlier work
[5] = Table 13 Comparative Studies; cited from earlier work
[6] = daily dose of 2 mg, steady state

Nc1ncnc2c1ncn2CCOCP(=O)(O)O [Adefovir]
interferon gene expression (IFN-α, IFN-β1) in senescent cells (IFN-I response): significantly reduced
SASP gene expression (IL-6, MMP3) in senescent cells (SASP response): significantly decreased
senescence-induced increase of L1 copy number (L1HS sequences): significantly prevented this increase

C#C[C@]1(CO)O[C@@H](n2cnc3c(N)nc(F)nc32)C[C@@H]1O [Islatravir, 2′-deoxy-4′-ethynyl-2-fluoroadenosine]
human LINE-1 inhibitor activity compared to the other reverse transcriptase inhibitory drugs tested (human LINE-1 [1]; HeLa cells): unexpectedly better human LINE-1 inhibitor activity
IC50 (human LINE-1 [1]; HeLa, Table 13 Comparative Studies, read-out: Human Line-1 IC50): 5 nM
IC50 (human LINE-1 [1]; HeLa, see Table 12, read-out: in vitro IC50 for human LINE-1 in cell-based assay): 1.29 nM
IC50 (human LINE-1 [1]; HeLa cells, pYX017, 72 h, n = 3, read-out: Human LINE-1 IC50, Average): 1.29 nM
IC50 (human LINE-1 [1]; HeLa cells, pYX017, 72 h, read-out: Human LINE-1 IC50, Exp. 3): 1.4 nM
IC50 (human LINE-1 [1]; HeLa cells, pYX017, 72 h, read-out: Human LINE-1 IC50, Exp.2): 1.18 nM
Human LINE-1 IQ C168 hr, PBMC, single dose (human LINE-1 [2]; Dose 0.5 mg): 1.84
Human LINE-1 IQ Cavg (ss), PBMC, q.d. (human LINE-1 [2]; Dose 0.5 mg): 23.41
Human LINE-1 IQ C168 hr, Brain, single dose (human LINE-1 [2]; Dose 0.5 mg): 0.46
Human LINE-1 IQ Cavg (ss), Brain, q.d. (human LINE-1 [2]; Dose 0.5 mg): 5.85
Human LINE-1 IQ C168 hr, PBMC, single dose (human LINE-1 [2]; Dose 1 mg): 2.61
Human LINE-1 IQ Cavg (ss), PBMC, q.d. (human LINE-1 [2]; Dose 1 mg): 39.79
Human LINE-1 IQ C168 hr, Brain, single dose (human LINE-1 [2]; Dose 1 mg): 0.66
Human LINE-1 IQ Cavg (ss), Brain, q.d. (human LINE-1 [2]; Dose 1 mg): 9.95
Human LINE-1 IQ C168 hr, PBMC, single dose (human LINE-1 [2]; Dose 2 mg): 3.00
Human LINE-1 IQ Cavg (ss), PBMC, q.d. (human LINE-1 [2]; Dose 2 mg): 50.54
Human LINE-1 IQ C168 hr, Brain, single dose (human LINE-1 [2]; Dose 2 mg): 0.75
Human LINE-1 IQ Cavg (ss), Brain, q.d. (human LINE-1 [2]; Dose 2 mg): 12.64
Human LINE-1 IQ C168 hr, PBMC, single dose (human LINE-1 [2]; Dose 10 mg): 15.64
Human LINE-1 IQ Cavg (ss), PBMC, q.d. (human LINE-1 [2]; Dose 10 mg): 295.15
Human LINE-1 IQ C168 hr, Brain, single dose (human LINE-1 [2]; Dose 10 mg): 3.92
Human LINE-1 IQ Cavg (ss), Brain, q.d. (human LINE-1 [2]; Dose 10 mg): 73.79
Human LINE-1 IQ C168 hr, PBMC, single dose (human LINE-1 [2]; Dose 30 mg): 76.88
Human LINE-1 IQ Cavg (ss), PBMC, q.d. (human LINE-1 [2]; Dose 30 mg): 915.31
Human LINE-1 IQ C168 hr, Brain, single dose (human LINE-1 [2]; Dose 30 mg): 19.22
Human LINE-1 IQ Cavg (ss), Brain, q.d. (human LINE-1 [2]; Dose 30 mg): 228.83
IQ for human LINE-1 in PBMCs (human LINE-1 [2]; [6]): 51
IQ for human LINE-1 in brain (human LINE-1 [2]; [6]): 13
IC50 (HIV WT): 0.2 nM
Plasma-Brain Kapp ([3]; non-human primate): 0.25
blood brain barrier penetration ([3]; single oral doses, Rhesus macaque): penetrated the blood brain barrier (BBB)
oral clearance [4]: 31 to 45 L/h
huCSF/Plasma [5]: 0.25
